Laboratory results reported in patent US20190274334A1 (MARS, INCORPORATED, priority 2016, published 2019).
Where two headings read alike, the source gives them in different places.

Target: feline CaSR (f:CaSR) (Felis catus, UniProt A0ABI7YY68)
Assay: cell-based
Format: cell-based
[1] = double-injection protocol, agonist mode and PAM mode
[2] = PAM mode, CaCl2 injected at EC20, read-out: EC50 (PAM)
[3] = agonist mode, read-out: EC50 (Agonist)

Chain of feline CaSR (f:CaSR) (A0ABI7YY68 entry or part of it): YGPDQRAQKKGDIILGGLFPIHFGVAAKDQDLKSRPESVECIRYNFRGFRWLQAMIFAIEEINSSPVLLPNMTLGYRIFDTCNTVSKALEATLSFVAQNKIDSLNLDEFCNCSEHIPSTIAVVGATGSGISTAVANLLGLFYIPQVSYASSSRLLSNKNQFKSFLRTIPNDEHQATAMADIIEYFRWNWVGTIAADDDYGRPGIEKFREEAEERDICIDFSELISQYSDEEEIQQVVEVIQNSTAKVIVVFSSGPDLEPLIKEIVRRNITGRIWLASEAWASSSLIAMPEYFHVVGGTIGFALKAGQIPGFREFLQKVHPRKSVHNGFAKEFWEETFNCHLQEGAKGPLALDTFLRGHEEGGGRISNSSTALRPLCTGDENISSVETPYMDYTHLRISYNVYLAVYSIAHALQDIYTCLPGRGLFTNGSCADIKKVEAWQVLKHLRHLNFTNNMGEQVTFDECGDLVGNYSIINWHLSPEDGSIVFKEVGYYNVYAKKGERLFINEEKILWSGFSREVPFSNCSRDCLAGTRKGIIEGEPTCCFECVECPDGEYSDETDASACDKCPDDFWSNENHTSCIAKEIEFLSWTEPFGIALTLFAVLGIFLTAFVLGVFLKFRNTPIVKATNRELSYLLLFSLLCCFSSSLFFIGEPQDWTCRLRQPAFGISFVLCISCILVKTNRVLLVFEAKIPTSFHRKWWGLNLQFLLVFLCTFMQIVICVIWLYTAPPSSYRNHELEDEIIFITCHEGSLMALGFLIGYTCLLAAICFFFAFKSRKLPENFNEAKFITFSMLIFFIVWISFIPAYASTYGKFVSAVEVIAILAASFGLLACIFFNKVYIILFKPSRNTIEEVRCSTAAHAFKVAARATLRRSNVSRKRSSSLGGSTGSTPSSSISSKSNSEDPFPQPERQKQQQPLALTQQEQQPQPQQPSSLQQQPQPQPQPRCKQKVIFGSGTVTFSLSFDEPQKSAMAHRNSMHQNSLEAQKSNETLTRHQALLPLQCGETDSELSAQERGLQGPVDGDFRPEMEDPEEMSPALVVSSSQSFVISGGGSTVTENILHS

Compound	Activity Type [1]	EC50 [2] [µM]	other results
CC[C@H](NC(=O)CC[C@H](N)C(=O)O)C(=O)O	Agonist		
NC(CC(F)C(=O)O)C(=O)O (racemic) [4-Fluoro-DL-glutamic acid]	Agonist		
NC(CCCCC(=O)O)C(=O)O (racemic) [(±)-2-Aminopimelic acid]			Activity Type: Agonist
COC(=O)C(N)CC(=O)O (racemic) [DL-Aspartic acid alpha-methyl ester]			Activity Type: Agonist
NC(CC(C(=O)O)C(=O)O)C(=O)O (racemic) [γ-Carboxy-DL-glutamic acid]			Activity Type: Agonist
N[C@@H](CP(=O)(O)O)C(=O)O (stereo in doubt) [2-Amino-3-phosphonopropionic acid]	Agonist		
N[C@@H](CCP(=O)(O)O)C(=O)O (stereo in doubt) [2-Amino-4-phosphonobutyric acid]	Agonist		
COc1cc(C(O)(c2nc3ccccc3s2)C(F)(F)F)c(OC)cc1N (centres unmarked) [1-(4-amino-2,5-dimethoxyphenyl)-1-(benzo[d]thiazol-2-yl)-2,2,2-trifluoroethanol]	PAM	2.42	
Cc1ccc(C2(CCNC(C)c3ccc(Cl)cc3)CCOC(C)(C)C2)cc1 (centres unmarked) [1-(4-chlorophenyl)-N-(2-(2,2-dimethyl-4-(p-tolyl)tetrahydro-2H-pyran-4-yl)ethyl)ethanamine]	PAM		
Cc1ccc(C(C)(O)c2nc3ccccc3s2)c(C)c1 (centres unmarked) [1-(benzo[d]thiazol-2-yl)-1-(2,4-dimethylphenyl)ethanol]	PAM	0.0511	
CC(NCC1CCCN(C)C1c1cccs1)c1cc(Cl)c(N)c(Cl)c1 (centres unmarked) [2,6-dichloro-4-(1-(((1-methyl-2-(thiophen-2-yl)piperidin-3-yl)methyl)amino)ethyl)aniline]	PAM	8.68	
CC(=O)N1C=Cc2ccccc2C1CC(=O)NC(C)c1cccc(Br)c1 (centres unmarked) [2-(2-acetyl-1,2-dihydroisoquinolin-1-yl)-N-(1-(3-bromophenyl)ethyl)acetamide]	PAM	12.1	
N[C@@H](C[C@H](O)C(=O)O)C(=O)O [2S,4S-γ-Hydroxy-L-glutamic acid]	Agonist		
CC(NCCC(c1ccccc1)C1CCOC(C)(C)C1)c1ccccc1 (centres unmarked) [3-(2,2-dimethyltetrahydro-2H-pyran-4-yl)-3-phenyl-N-(1-phenylethyl)propan-1-amine]	PAM	0.988	
OCC(CNC1CCCOc2cc(Cl)ccc21)Cc1ccccn1 (centres unmarked) [3-((8-chloro-2,3,4,5-tetrahydrobenzo[b]oxepin-5-yl)amino)-2-(pyridin-2-ylmethyl)propan-1-ol]	PAM		
CC(NCCC(c1ccccc1)c1ccco1)c1ccccc1 (centres unmarked) [3-(furan-2-yl)-3-phenyl-N-(1-phenylethyl)propan-1-amine]	PAM	0.458	
CC(NCCC(Cc1ccccc1)c1ccco1)c1ccccc1 (centres unmarked) [3-(furan-2-yl)-4-phenyl-N-(1-phenylethyl)butan-1-amine]	PAM	0.673	
Cc1ccc(C(CCNC(C)c2cccs2)c2ccco2)cc1 (centres unmarked) [3-(furan-2-yl)-N-(1-(thiophen-2-yl)ethyl)-3-(p-tolyl)propan-1-amine]	PAM	2.25	
Cc1ccc(C(CCNC(C)c2ccccc2)c2ccco2)cc1 (centres unmarked) [3-(furan-2-yl)-N-(1-phenylethyl)-3-(p-tolyl)propan-1-amine]	PAM	0.752	
N[C@@H](CCC(=O)N[C@@H](CSCc1c[nH]c2ccccc12)C(=O)NCC(=O)O)C(=O)O [3-Glutathionyl-S-methylindole]	Agonist		
c1ccc(C2CCN(C3CCCc4ccccc43)C2)cc1 (centres unmarked) [3-phenyl-1-(1,2,3,4-tetrahydronaphthalen-1-yl)pyrrolidine]	PAM		

Compound	Activity Type [1]	EC50 [2] [µM]	other results
CC(NC1CCc2c(F)cc(Br)cc21)c1ccncc1 (centres unmarked) [6-bromo-4-fluoro-N-(1-(pyridin-4-yl)ethyl)-2,3-dihydro-1H-inden-1-amine]	PAM		
N[C@]1(C(=O)O)C[C@H](C(=O)O)C1 [(1s,3s)-1-aminocyclobutane-1,3-dicarboxylic acid]			Activity Type: Agonist
[Ba] [Barium]	Agonist		EC50 [3]: 1170 µM
C[C@@H](NCc1cc2ccccc2[nH]1)c1cccc2ccccc12 [Calindol, reference compound]	PAM		
C[C@@H](NCCCc1cccc(C(F)(F)F)c1)c1cccc2ccccc12 [Cinacalcet, reference compound]			Activity Type: PAM EC50 0.746 uM
[Gd] [Gadolinium]	Agonist		EC50 [3]: 295 µM
CNC(C)[C@@H]1CC[C@@H](N)[C@@H](O[C@H]2[C@H](O)[C@@H](O[C@H]3OC[C@](C)(O)[C@H](NC)[C@H]3O)[C@H](N)C[C@@H]2N)O1 (some centres unmarked) [Gentamicin, reference compound]	Agonist		EC50 [3]: 990 µM
N[C@@H](CCC(=O)N[C@@H](CS)C(=O)NCC(=O)O)C(=O)O [Glutathione]			Activity Type: Agonist EC 50 6.39 mM
C[C@H](NC(=O)C[C@H](N)C(=O)O)C(=O)O [H-Asp(Ala-OH)—OH]	Agonist		
N[C@@H](CC(=O)NCC(=O)O)C(=O)O [H-Asp(Gly-OH)—OH]	Agonist		
CC(C)C[C@H](NC(=O)C[C@H](N)C(=O)O)C(=O)O [H-Asp(Leu-OH)—OH]	Agonist		
N[C@@H](CC(=O)N[C@@H](Cc1ccccc1)C(=O)O)C(=O)O [H-Asp(Phe-OH)—OH]	Agonist		
N[C@@H](CCC(=O)N[C@@H](CS)C(=O)O)C(=O)O [H-Glu(Cys-OH)—OH]			Activity Type: Agonist
NC(=O)CC[C@H](NC(=O)CC[C@H](N)C(=O)O)C(=O)O [H-Glu(Gln-OH)—OH]	Agonist		
NC(=O)CC[C@H](NC(=O)CC[C@H](NC(=O)CC[C@H](N)C(=O)O)C(=O)O)C(=O)O [H-Glu(Glu(Gln-OH)—OH)—OH]	Agonist		
N[C@@H](CCC(=O)N[C@@H](CCC(=O)N[C@@H](CCC(=O)O)C(=O)O)C(=O)O)C(=O)O [H-Glu(Glu(Glu-OH)—OH)—OH]			Activity Type: Agonist EC50 2.35 mM; EC50 [3]: 2350 µM
N[C@@H](CCC(=O)N[C@@H](CCC(=O)O)C(=O)O)C(=O)O [H-Glu(Glu-OH)—OH]	Agonist		
N[C@@H](CCC(=O)NCC(=O)O)C(=O)O [H-Glu(Gly-OH)—OH]	Agonist		
CC(C)C[C@H](NC(=O)CC[C@H](N)C(=O)O)C(=O)O [H-Glu(Leu-OH)—OH]	Agonist		
CSCC[C@H](NC(=O)CC[C@H](N)C(=O)O)C(=O)O [H-Glu(Met-OH)—OH]	Agonist		
N[C@@H](CCC(=O)N[C@@H](Cc1c[nH]c2ccccc12)C(=O)O)C(=O)O [H-Glu(Trp-OH)—OH]	Agonist		

Compound	Activity Type [1]	EC50 [2] [µM]	other results
N[C@@H](CCCC(=O)O)C(=O)O [L-2-Aminoadipic acid]	Agonist		
COC(=O)C[C@H](N)C(=O)O [L-Aspartic acid beta-methyl ester]	Agonist		
N[C@@H](CC(=O)O)C(=O)O [L-Aspartic acid]			Activity Type: Agonist EC50 4.11 mM
N[C@@H](CS(=O)(=O)O)C(=O)O [L-Cysteic acid]	Agonist		
N[C@@H](CCC(=O)O)C(=O)O [L-Glutamic acid]			Activity Type: Agonist
N[C@@H](CCS(=O)(=O)O)C(=O)O [L-Homocysteic acid]	Agonist		
NC(=O)[C@@H](N)CCC(=O)O [L-Isoglutamine]	Agonist		
[Mg] [Magnesium]	Agonist		
O=P(O)(O)CP(=O)(O)O [Methylenediphosphonic acid]	Agonist		EC50 [3]: 1290 µM
Cc1ccc(C(C)NC(C)c2cc3ccccc3[nH]2)cc1C (centres unmarked) [N-(1-(1H-indol-2-yl)ethyl)-1-(3,4-dimethylphenyl)ethanamine]	PAM		
COc1ccccc1C(CCNC(C)c1ccc(Cl)cc1)c1ccc(OC(C)C)cc1 (centres unmarked) [N-(1-(4-chlorophenyl)ethyl)-3-(4-isopropoxyphenyl)-3-(2-methoxyphenyl)propan-1-amine]	PAM	0.714	
CC(C)Oc1ccc(C(CCNC(C)c2ccc(Cl)cc2)c2ccccc2)cc1 (centres unmarked) [N-(1-(4-chlorophenyl)ethyl)-3-(4-isopropoxyphenyl)-3-phenylpropan-1-amine]	PAM	4.49	
CC(C)Oc1ccc(C(CCNC(C)c2ccc(Cl)cc2)C(C)C)cc1 (centres unmarked) [N-(1-(4-chlorophenyl)ethyl)-3-(4-isopropoxyphenyl)-4-methylpentan-1-amine]	PAM	135	
CC(C)CCC(CCNC(C)c1ccc(Cl)cc1)c1ccc(OC(C)C)cc1 (centres unmarked) [N-(1-(4-chlorophenyl)ethyl)-3-(4-isopropoxyphenyl)-6-methylheptan-1-amine]	PAM	172	
COc1ccc(C(CCNC(C)c2ccc(Cl)cc2)C(C)C)cc1 (centres unmarked) [N-(1-(4-chlorophenyl)ethyl)-3-(4-methoxyphenyl)-4-methylpentan-1-amine]	PAM	1.44	
COc1ccc(C(CCNC(C)c2ccc(Cl)cc2)CCC(C)C)cc1 (centres unmarked) [N-(1-(4-chlorophenyl)ethyl)-3-(4-methoxyphenyl)-6-methylheptan-1-amine]	PAM	115	
COc1ccccc1C(CCNC(C)c1ccc(Cl)cc1)c1ccco1 (centres unmarked) [N-(1-(4-chlorophenyl)ethyl)-3-(furan-2-yl)-3-(2-methoxyphenyl)propan-1-amine]	PAM	1.41	
Cc1ccc(C(CCNC(C)c2ccc(Cl)cc2)c2ccco2)cc1 (centres unmarked) [N-(1-(4-chlorophenyl)ethyl)-3-(furan-2-yl)-3-(p-tolyl)propan-1-amine]	PAM	3.68	
CC(NCCC(Cc1ccccc1)c1ccco1)c1ccc(Cl)cc1 (centres unmarked) [N-(1-(4-chlorophenyl)ethyl)-3-(furan-2-yl)-4-phenylbutan-1-amine]	PAM	4	
CC(NCC1Cc2ccccc2O1)c1ccc2ccccc2n1 (centres unmarked) [N-((2,3-dihydrobenzofuran-2-yl)methyl)-1-(quinolin-2-yl)ethanamine]	PAM	9.01	
